Assay results: patent US6319951A, “Use of 3-amino-4-hydroxybenzoic acid for the treatment of retroviral infections” (priority 1996, dated 2001)
Values after ≈ are worked out from the molar mass of the structure shown. Values joined by “and” are separate entries in the source; they are usually repeats but may differ in a detail not shown here. Identical values can stand only once. “Also recorded” adds a separate entry of the source. Like-named read-outs stand apart in the source and are kept apart here.

How the values were obtained:
HIV [1] = assay: inactivation of HIV cultivated in human lymphocytes (minimum inhibitory concentration); assay type: cell-based
human lymphocytes = assay: adverse effect on human lymphocytes in HIV culture; assay type: cell-based; settings: at minimum concentration of 0.5 mg/l
[2] = Therapeutic Index determination
Excerpt: The Therapeutic Index of 3-amino-4-hydroxybenzoic acid has been determined. International pharmacological principles demand that for human safety the Therapeutic Index of any drug to be used for human treatment should be greater than a unit, i.e. 1. If the Index is greater than 1, patients can take the drug without medical supervision and without experiencing adverse effects. There are, however, cases where therapeutic indices are less than 1 where the benefits outweigh the risks. This holds in the administration of anti-cancer drugs which mandate the availability of competent medical supervision. The reason behind this is that the drugs are supposed to destroy cancerous human cells. The difference between normal human cells and cancerous human cells is, as expected, minimal. It is expected that the difference between HIV and normal human cells would be colossal.
Therapeutic Index for 3-amino-4-hydroxybenzoic acid is: [formula]
The index for 3-amino-4-hydroxybenzoic acid is 40,000 which is good mathematical proof to back the safety of 3-amino-4-hydroxybenzoic acid as a drug to treat HIV.

Herpes simplex = assay: antimicrobial activity, Herpes simplex
HIV [3] = assay: antimicrobial activity, HIV
Neisseria gonorrhoeae = assay: antimicrobial activity, Neisseria gonorrhoeae
Treponema pallidum = assay: antimicrobial activity, Treponema pallidum
Escherchia coli = assay: antimicrobial activity, Escherichia coli
Candida albicans = assay: antimicrobial activity, fungi, Candida albicans
Trichomona vapinalis = assay: antimicrobial activity, protozoan Trichomonas
HIV [4] = assay: dipping HIV into aqueous 3-amino-4-hydroxybenzoic acid; settings: aqueous solution, 30 seconds
Excerpt: This duration is too short to be an inhibition of protein synthesis. It could only be an irreversible binding of the viral coat at gp120, gp160 or gp41 thereby making the virus fail to attach itself to the CD4 surface markers of target cells. […] It may also inactivate the lytic enzyme essential for HIV entry into the host cell as it does for hyaluronidase.

gonorrhoeae = assay: patient with gonorrhoea treated orally; assay type: in vivo, human; settings: 1.6 g orally
Method: (§1) When a patient, with a frankly discharging gonorrhoeae was given 1.6 g of 3-amino-4-hydroxybenzoic acid orally, the discharge ceased in 12 hours but recurred in the 24th hour after treatment.

[5] = absorption and excretion inferred from oral treatment of gonorrhoea patient; assay type: in vivo, human; settings: 1.6 g
Method: as §1

safety study on chicken = assay type: in vivo; settings: oral, 9 days, up to 400.6 mg/kg
Excerpt: A chicken of 500 g was used and 3-amino-4-hydroxybenzoic acid in water was forced down the esophagus using a plastic syringe over 9 days.

safety study on rabbit = assay type: in vivo; settings: intraperitoneal, 9 days, up to 133.3 mg/kg
[6] = safety study on human volunteers; assay type: in vivo; settings: 7 volunteers, oral; person 1: 200 mg stat and 200 mg tds x 2/52; person 3: 800 mg stat
Excerpt: Safety Study on Human Volunteers
Dose & Frequency of 3- Total 3-amino-4-
amino-4-hydroxybenzoic hydroxybenzoic acid
Person acid Intake mg/kg
Each person took 3-amino-4-hydroxybenzoic acid orally.

[7] = adverse effects in HIV/AIDS patients; assay type: in vivo, human
Excerpt: Our experience in using 3-amino-4-hydroxybenzoic acid to treat HIV/AIDS has shown only one non-uniform adverse effect. […] In the case of 3-amino-4-hydroxybenzoic acid, this occasional side effect can be averted by feeding before administration, giving a flavouring agent before administration or preparing the medicament in capsule form. The nausea is temporary. The medicament is preferably taken for approximately 28 days.

HIV [8] = assay type: in vivo
Method: Clinical observations on HIV/AIDS Patients Treated with 3-amino-4-hydroxybenzoic acid
Treatment was administered orally to each patient taking 200 mg of 3-amino-4-hydroxybenzoic acid tds for 14 days.

HIV [9] = assay: T-cell observations after HIV/AIDS treatment (Example 4); assay type: in vivo
Method: Symptomatic and asymptomatic seropositive individuals were treated with 3-amino-4-hydroxybenzoic acid (200 mg tds orally) for two weeks. CD4 :CD8 ratios were taken before and three months after treatment. […] Based on its inherent ability to inactivate HIV in vitro it is probable that 3-amino-4-hydroxybenzoic acid suppresses or inactivates the HIV in affected individuals.
The individuals were taken randomly as they became available (3 male and 4 female). Their T-cell counts were taken before treatment and three months after treatment. They were given 3-amino-4-hydroxybenzoic acid as 200 mg tds orally and followed on daily basis as they took 3-amino-4-hydroxybenzoic acid for two weeks. Thereafter they were followed weekly for the first month after finishing the course of medicine and then monthly.

HIV [10] = assay: T-cell counts of patients JE001-JE0015, once daily dosing (Example 5); assay type: in vivo
Method: These were made on patients JE001-JE0015 who received 200 mg of 3-amino-4-hydroxybenzoic acid orally only once per day for two weeks and whose T-cell counts were analysed after only 6 weeks.
Continuous study of viral load by quantitative PCR when available will show the optimum dose and duration of administration of 3-amino-4-hydroxybenzoic acid.
An explanation is that the CD4 cells which carry HIV die after 3-amino-4-hydroxybenzoic acid kills the virus in them. Later as the precursor cells form other CD4 s without HIV to destroy them, the total CD4 count will be found even higher than before treatment.

HIV [11] = assay: trial based on clinical and haematological findings (Example 5); assay type: in vivo
Excerpt: In addition, trial based on clinical and haematological findings have shown the following observations.

HIV [12] = assay: electron microscopy of patient blood (Example 6); assay type: in vivo; settings: two patients, before treatment and 28 days after
Excerpt: (§2) Blood samples were taken for electron microscopy and HIV culture before and after treatment of two patients.

HIV [13] = assay: HIV culture from patient blood (Example 6); assay type: in vivo
Excerpt: as §2

water solubility = assay type: physicochemical
hyaluronidase = settings: acrosomal proteolytic enzyme of sperm; cited from earlier work
HIV [14] = assay type: in vivo; remark: listed apart in the source
HIV [15] = settings: in presence of normal serum iron; cited from earlier work
HIV [16] = settings: reported for AZT; cited from earlier work
[17] = 200 mg tds oral, 14 days, patient three (1)
[18] = 200 mg tds orally, two weeks, before vs three months after treatment
[19] = per patient, 200 mg tds orally, two weeks, three months after treatment
[20] = patient three (8), in 6 months of treatment

Nc1cc(C(=O)O)ccc1O [3-amino-4-hydroxybenzoic acid]
MIC (HIV [1]; Human immunodeficiency virus 1, HIV cultivated in human lymphocytes, read-out: minimum inhibitory concentration / minimum concentration inactivating cultivated HIV): 0.5 mg/L (≈ 3.27 µM)
inactivation of cultivated HIV (HIV [1]; in vitro, cultivated HIV): completely inactivate cultivated HIV
adverse effect to the lymphocytes (human lymphocytes): without any adverse effect to the lymphocytes
Therapeutic Index [2]: 40,000
selectivity ratio [2]: 40000
antimicrobial activity (Herpes simplex): established
antimicrobial activity (HIV [3]): established
antimicrobial activity (Neisseria gonorrhoeae): established
antimicrobial activity (Treponema pallidum): established
antimicrobial activity (Escherchia coli): established
antimicrobial activity (Candida albicans): established
antimicrobial activity (Trichomona vapinalis): established
infectivity of HIV after dipping (HIV [4]): renders the virus uninfective
bacteriostatic effect (gonorrhoeae): bacteriostatic
time to cessation of gonorrhoeal discharge (gonorrhoeae): 12 h
absorption from the gut / excretion [5]: sufficiently absorbed from the gut; also recorded: well absorbed and excreted
adverse effects (safety study on chicken): no adverse effects observed
adverse effects (safety study on rabbit): no adverse effects observed
persons experiencing nausea [6]: Only persons 1 and 3 experienced nausea without vomiting
adverse effect ([7]; HIV/AIDS patients): nausea and vomiting in the very weak
side effects noted ([7]; chicken, rabbit, sheep and human volunteers): Only tolerable nausea and occasional vomiting
body weight after treatment (HIV [8]; [17]): 48 kg
haemoglobin after treatment (HIV [8]; [17]): 16%
lymphocytes (relative) after treatment (HIV [8]; [17]): 49%
body weight before treatment (HIV [8]; 200 mg tds oral, 14 days, patient three (1), baseline): 44 kg
clinical, haematological and weight gain assessment (HIV [8]; about 20 patients): found to improve
average weight gain (HIV [8]; average patient, within the first month): 5 kg
signs and symptoms (HIV [8]; patient five (3), after 2 weeks): the signs and symptoms were over
standing and walking unaided (HIV [8]; patient four (9)): By the third day they could stand and walk unaided
time until diarrhoea ceased (HIV [8]; patient four (9)): 24 h
vomiting and diarrhoea (HIV [8]; patient four (9)): over by the third day
health at follow-up (HIV [8]; patient four (9), 22.1.95 and May 19th 1995): in perfect health on 22.1.95
serum iron (HIV [8]; patient four (9), all along the time of treatment): normal
wounds healed, signs and symptoms over (HIV [8]; patient four (9), by end of second week): wounds had healed and all their signs and symptoms were over
haemoglobin rise (HIV [8]; patient four (9), by the sixth month): 1 g %
weight gain (HIV [8]; patient four (9), in six months): 1 kg
haemoglobin after treatment (HIV [8]; patient four (9), sixth month): 11.9%
oral ulcers, genital wounds and lymph node enlargement (HIV [8]; patient one (2)): over by the second week of treatment
time until able to go to the toilet and bathroom unaided (HIV [8]; patient one (2)): ≤ 5 days
body weight before treatment (HIV [8]; patient one (2), baseline): 41 kg
weight gain (HIV [8]; patient one (2), in 3 weeks): 2.5 kg
rashes and pigmentation (HIV [8]; patient six (6), in 2 weeks of treatment): The rashes subsided and the pigmentation returned to normal skin colour
time until signs and symptoms were over (HIV [8]; patient three (1)): six
haemoglobin before treatment (HIV [8]; patient three (1), baseline): 11.69%
lymphocytes (relative) before treatment (HIV [8]; patient three (1), baseline): 39%
body weight before treatment (HIV [8]; patient three (8), baseline): 44 kg
haemoglobin before treatment (HIV [8]; patient three (8), baseline): 12.1%
functional recovery (house work, shopping) (HIV [8]; patient two (7), in 5 days of treatment): able to do their house work, go for salary from their place of work and even go to the market for shopping
immunological improvement (HIV [9]; 200 mg tds orally, two weeks): there is immunological improvement
mean increase in CD4 (HIV [9]; 200 mg tds orally, two weeks, 7 patients): 208
CD4:CD8 ratio change (HIV [9]; [18]): rose
CD8 change (HIV [9]; [18]): decreased to varying levels in all of the individuals
Increase in CD4 after treatment (HIV [9]; 200 mg tds orally, two weeks, three months after treatment, per patient): 531 CD4/mm^3 and 72 CD4/mm^3 and 160 CD4/mm^3 and 40 CD4/mm^3 and 184 CD4/mm^3 and 102 CD4/mm^3 and 465 CD4/mm^3
CD4/CD8 Ratio Before Treatment (HIV [9]; per patient, baseline): 0.845 and 0.00 and 0.7 and 0.3 and 0.29 and 0.9
CD4 Count Before Treatment (HIV [9]; per patient, baseline): 561 CD4/mm3 and 50 CD4/mm3 and 650 CD4/mm3 and 460 CD4/mm3 and 300 CD4/mm3 and 1122 CD4/mm3 and 1014 CD4/mm3
CD4/CD8 Ratio After Treatment (HIV [9]; [19]): 1.632 and 0.06 and 2.2 and 0.2 and 0.564 and 0.78 and 1.11
CD4 Count After Treatment (HIV [9]; [19]): 1092 CD4/mm3 and 112 CD4/mm3 and 810 CD4/mm3 and 500 CD4/mm3 and 484 CD4/mm3 and 1326 CD4/mm3 and 1479 CD4/mm3
T-cell results (HIV [10]; 200 mg orally once per day, two weeks, analysed after 6 weeks, vs patient JC004 (200 mg tds)): The results were poor
CD4 count when counted earlier than three months (HIV [10]; earlier than three months): low figures even lower than before the start of treatment
time until anorexia subsides (HIV [11]; human, in vivo): ≤ 5 days
time until bed ridden patients can stand and do light work (HIV [11]; human, in vivo): ≤ 2 weeks
time until diarrhoea stops (HIV [11]; human, in vivo): 1-3
time until fever and weakness subside (HIV [11]; human, in vivo): ≤ 1 week
time until haemoglobin normalizes (HIV [11]; human, in vivo): ≤ 1 month
time until poor vision normalizes (HIV [11]; human, in vivo): ≤ 1 week
time until rashes and hyper pigmentation of scars subside (HIV [11]; human, in vivo): ≤ 5 days
time until sleep normalizes in intensity and rhythm (HIV [11]; human, in vivo): ≤ 2 days
time until vomiting ceases (HIV [11]; human, in vivo): ≤ 2 days
time until oral and anogenital ulcers heal (HIV [11]; human, in vivo, po): ≤ 1 week
average weight gain (HIV [11]; within the first month of treatment): 5 kg
HIV particles by electron microscopy (HIV [12]): HIV particles before treatment but not 28 days after treatment
eradication of HIV from patients' blood (HIV [13]; 3 mg/kg tds, 28 days): eradicates HIV from the patients blood
HIV culture growth (HIV [13]; two patients, before treatment and after 28 days of treatment): grew HIV but not after 28 days of treatment
solubility in water (water solubility): not readily soluble in water
inactivation of hyaluronidase (hyaluronidase): inactivates an achrosomal proteolytic enzyme hyaluronidase
hair (HIV [14]; patient four (9), by 6 weeks of treatment): their thin silk hair had reverted to the normal Afro type
body weight after treatment (HIV [14]; [20]): 53 kg
haemoglobin after treatment (HIV [14]; [20]): 14.9%

Cc1cn([C@H]2C[C@H](N=[N+]=[N-])[C@@H](CO)O2)c(=O)[nH]c1=O [AZT]
bone marrow depression and anaemia (HIV [15]): causes bone marrow depression and anaemia in presence of normal serum iron
reported equivalent increase in CD4 (HIV [16]): 81
